# In ChEMBL document CHEMBL1132960, “Consensus bioactive conformation of cyclic GnRH antagonists defined by NMR and molecular modeling” (J Med Chem, 2000):
# Where a SMILES comes first, the peptide text is derived from it. Bridges are numbered along the chain shown (N, C = ends). [ ]: non-standard residue; d: D form. dPhe(4-Cl) = N[C@H](Cc1ccc(Cl)cc1)C(=O)O; d2Nal = N[C@H](Cc1ccc2ccccc2c1)C(=O)O; d3Pal = N[C@H](Cc1cccnc1)C(=O)O; NMeL = CN[C@@H](CC(C)C)C(=O)O; ΔPro = O=C(O)[C@@H]1C=CCN1; Dab = NCC[C@H](N)C(=O)O; Dap = NC[C@H](N)C(=O)O; βAla = NCCC(=O)O
# Tests used:
# Rattus norvegicus [1] = species on record: Rattus norvegicus; assay: Number of rats ovulating over total at a dose of 10 ug/rat (2/20); assay type: functional
# Rattus norvegicus [2] = species on record: Rattus norvegicus; assay: Number of rats ovulating over total at a dose of 2.5 ug/rat (2/8); assay type: functional
# [3] = biological target: T1, Gonadotropin-releasing hormone receptor (Homo sapiens, UniProt P30968); assay: Binding affinity towards Gonadotropin-releasing hormone receptor
# T1 sequence (P30968 whole entry): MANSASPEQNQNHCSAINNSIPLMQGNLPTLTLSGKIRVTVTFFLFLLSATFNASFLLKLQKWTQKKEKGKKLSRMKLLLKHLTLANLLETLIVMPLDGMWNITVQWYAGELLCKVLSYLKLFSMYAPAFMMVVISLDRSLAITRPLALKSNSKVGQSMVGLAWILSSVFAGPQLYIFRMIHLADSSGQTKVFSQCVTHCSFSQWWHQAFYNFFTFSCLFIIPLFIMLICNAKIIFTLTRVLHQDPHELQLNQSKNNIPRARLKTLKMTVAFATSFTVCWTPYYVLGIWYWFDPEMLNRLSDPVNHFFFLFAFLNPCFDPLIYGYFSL
# Rattus norvegicus [4] = species on record: Rattus norvegicus; assay: Number of rats ovulating over total at a dose of 5 ug/rat (2/8); assay type: functional
# Rattus norvegicus [5] = species on record: Rattus norvegicus; assay: Number of rats ovulating over total at a dose of 5 ug/rat (3/20); assay type: functional
# Rattus norvegicus [6] = species on record: Rattus norvegicus; assay: Number of rats ovulating over total at a dose of 1000 ug/rat (5/8); assay type: functional
smiles,measurement,setting,value
CC(=O)N1CC=C[C@H]1C(=O)N[C@H](Cc1ccc(F)cc1)C(=O)N[C@H](Cc1c[nH]c2ccccc12)C(=O)N[C@H]1CC(=O)NC[C@@H](C(N)=O)NC(=O)[C@@H]2CCCN2C(=O)[C@H](CCCN=C(N)N)NC(=O)[C@H](CC(C)C)NC(=O)[C@@H](Cc2ccc3ccccc3c2)NC(=O)[C@H](Cc2ccc(O)cc2)NC1=O,No. of rats,Rattus norvegicus [1],2
CC(=O)N[C@H]1CCC(=O)NCC(=O)NCC[C@@H]2NC(=O)[C@H](CC(=O)NC[C@@H](C(N)=O)NC(=O)[C@@H]3CCCN3C(=O)[C@H](CCCN=C(N)N)NC(=O)[C@H](CC(C)C)NC(=O)[C@@H](Cc3ccc4ccccc4c3)NC2=O)NC(=O)[C@@H](Cc2c[nH]c3ccccc23)NC(=O)[C@@H](Cc2ccc(Cl)cc2)NC1=O,No. of rats,Rattus norvegicus [2],2
CC(=O)N[C@H](Cc1ccc2ccccc2c1)C(=O)N[C@H](Cc1ccc(Cl)cc1)C(=O)N[C@H](Cc1cccnc1)C(=O)N[C@H]1CC(=O)NC[C@@H](C(N)=O)NC(=O)[C@@H]2CCCN2C(=O)[C@@H]2CCNC(=O)CNC(=O)CC[C@H](NC1=O)C(=O)N[C@H](CCCN=C(N)N)C(=O)N[C@@H](CC(C)C)C(=O)N2 (Ac-[d2Nal][dPhe(4-Cl)][d3Pal]DE[dR]L[Dab]P[Dap]-NH2; lactam 4-10; linker 5-8 via G) [listing 1 of 2 here],Ki,[3],0.14 nM
CC(=O)N[C@H](Cc1ccc2ccccc2c1)C(=O)N[C@H](Cc1ccc(Cl)cc1)C(=O)N[C@H](Cc1cccnc1)C(=O)N[C@H]1CC(=O)NC[C@@H](C(N)=O)NC(=O)[C@@H]2CCCN2C(=O)[C@@H]2CCNC(=O)CNC(=O)CC[C@H](NC1=O)C(=O)N[C@H](CCCN=C(N)N)C(=O)N[C@@H](CC(C)C)C(=O)N2 (Ac-[d2Nal][dPhe(4-Cl)][d3Pal]DE[dR]L[Dab]P[Dap]-NH2; lactam 4-10; linker 5-8 via G) [listing 2 of 2 here],No. of rats,Rattus norvegicus [4],2
"CC(=O)N[C@H](Cc1ccc2ccccc2c1)C(=O)N[C@H](Cc1ccc(Cl)cc1)C(=O)N[C@H](Cc1c[nH]c2ccccc12)C(=O)N[C@H]1CC(=O)NC[C@@H](C(N)=O)NC(=O)[C@@H]2CCCN2C(=O)[C@@H]2CCCCNC(=O)CC[C@H](NC1=O)C(=O)N[C@H](CCCN=C(N)N)C(=O)N[C@@H](CC(C)C)C(=O)N2 (Ac-[d2Nal][dPhe(4-Cl)][dW]DE[dR]LKP[Dap]-NH2; lactam 4-10, 5-8) [listing 1 of 2 here]",Ki,[3],0.32 nM
"CC(=O)N[C@H](Cc1ccc2ccccc2c1)C(=O)N[C@H](Cc1ccc(Cl)cc1)C(=O)N[C@H](Cc1c[nH]c2ccccc12)C(=O)N[C@H]1CC(=O)NC[C@@H](C(N)=O)NC(=O)[C@@H]2CCCN2C(=O)[C@@H]2CCCCNC(=O)CC[C@H](NC1=O)C(=O)N[C@H](CCCN=C(N)N)C(=O)N[C@@H](CC(C)C)C(=O)N2 (Ac-[d2Nal][dPhe(4-Cl)][dW]DE[dR]LKP[Dap]-NH2; lactam 4-10, 5-8) [listing 2 of 2 here]",No. of rats,Rattus norvegicus [5],3
CC(C)C[C@H]1C(=O)N[C@@H](CCCN=C(N)N)C(=O)N2CCC[C@H]2C(=O)NCCC(=O)N2CC=C[C@H]2C(=O)N[C@H](Cc2ccc(Cl)cc2)C(=O)N[C@H](Cc2c[nH]c3ccccc23)C(=O)N[C@@H](CO)C(=O)N[C@@H](Cc2ccc(O)cc2)C(=O)N[C@H](Cc2c[nH]c3ccccc23)C(=O)N1C (cyclo([NMeL]RP[βAla][ΔPro][dPhe(4-Cl)][dW]SY[dW])),No. of rats,Rattus norvegicus [6],5
